This assay has as its target HCV NS3-4A serine protease (full-length NS3-4A protein) (Hepatitis C virus genotype 1a (isolate 1) (HCV), UniProt P26664). In words: HCV NS3-4A protease assay. It counts as biochemical, HCV genotype 1a. The conditions noted are these: strain HCV-1, fluorogenic peptide substrate, read-out: Protease assay Ex. 12 IC50. As to the method:
The inhibitory activity of certain compounds of Table A against HCV NS3-4A serine protease is determined in a homogenous assay using the full-length NS3-4A protein (genotype 1a, strain HCV-1) and a commercially available internally-quenched fluorogenic peptide substrate as described by Taliani, M., et al. 1996 Anal. Biochem. 240:60-67, which is incorporated by reference in its entirety.

Chain of HCV NS3-4A serine protease (full-length NS3-4A protein) (P26664 1027-1657): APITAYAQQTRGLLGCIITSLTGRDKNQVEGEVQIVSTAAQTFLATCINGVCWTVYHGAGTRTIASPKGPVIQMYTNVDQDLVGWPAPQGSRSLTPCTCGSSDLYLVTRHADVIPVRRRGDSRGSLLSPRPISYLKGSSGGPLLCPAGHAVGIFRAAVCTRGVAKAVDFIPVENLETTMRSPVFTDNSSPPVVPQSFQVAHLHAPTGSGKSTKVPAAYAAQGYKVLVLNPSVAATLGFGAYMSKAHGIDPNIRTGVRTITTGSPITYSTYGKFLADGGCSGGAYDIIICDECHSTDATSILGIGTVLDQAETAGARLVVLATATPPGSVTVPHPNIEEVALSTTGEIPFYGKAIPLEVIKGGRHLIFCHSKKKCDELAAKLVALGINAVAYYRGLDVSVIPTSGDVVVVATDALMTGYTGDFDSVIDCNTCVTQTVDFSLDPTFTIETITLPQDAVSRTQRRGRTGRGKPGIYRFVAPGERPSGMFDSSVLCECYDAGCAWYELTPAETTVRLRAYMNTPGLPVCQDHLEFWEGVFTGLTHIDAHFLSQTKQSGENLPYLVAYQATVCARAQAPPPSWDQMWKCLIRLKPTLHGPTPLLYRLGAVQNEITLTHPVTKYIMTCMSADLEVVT
Chain of HCV NS3-4A serine protease (full-length NS3-4A protein) (P26664 1658-1711 partner): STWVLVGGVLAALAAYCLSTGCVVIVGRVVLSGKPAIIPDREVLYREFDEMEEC

Broadly, the IC50 is the concentration that gives 50% inhibition. Regarding `C=C[C@@H]1C[C@]1(NC(=O)[C@@H]1C[C@@]2(CN1C(=O)[C@@H](NC(=O)[C@@H](NC(=O)[C@@H]1CCCCN1C(C)C)C1CCCCC1)C(C)(C)C)C(C)(C)C21CCC1)C(=O)NS(=O)(=O)N(C)C` [Compound 162, (5R,8S)-7-[(2S)-2-{[(2S)-2-cyclohexyl-2-{[(1-isopropylpiperidin-2-yl)carbonyl]amino}acetyl]amino}-3,3-dimethylbutanoyl]-N-[(1R,2S)-1-{[(dimethylamino)sulfonyl]carbamoyl}-2-vinylcyclopropyl]-10,10-dimethyl-7-azadispiro[3.0.4.1]decane-8-carboxamide], the 50% inhibitory concentration (IC50) was determined as 0.9 nM. Turning to `C=C[C@@H]1C[C@]1(NC(=O)[C@@H]1C[C@@]2(CN1C(=O)[C@@H](NC(=O)[C@@H](NC(=O)[C@H]1CCCN1C(C)C)C1CCCCC1)C(C)(C)C)C(C)(C)C21CCC1)C(=O)NS(=O)(=O)N1CCCC1` [Compound 16, (5R,8S)-7-[(2S)-2-{[(2S)-2-cyclohexyl-2-({[(2R)-1-isopropylpyrrolidin-2-yl]carbonyl}amino)acetyl]amino}-3,3-dimethylbutanoyl]-10,10-dimethyl-N-{(1R,2S)-1-[(pyrrolidin-1-ylsulfonyl)carbamoyl]-2-vinylcyclopropyl}-7-azadispiro[3.0.4.1]decane-8-carboxamide], the IC50 came to 2.3 nM.

For the molecule `C=C[C@@H]1C[C@]1(NC(=O)[C@@H]1C[C@@]2(CN1C(=O)[C@@H](NC(=O)[C@@H](NC(=O)[C@@H]1CCCN1CC(F)F)C1CCCCC1)C1CCOCC1)C(C)(C)C21CCC1)C(=O)NS(=O)(=O)N1CCCC1` [Compound 72, (5R,8S)-7-[(2S)-2-{[(2S)-2-cyclohexyl-2-({[(2S)-1-(2,2-difluoroethyl)pyrrolidin-2-yl]carbonyl}amino)acetyl]amino}-2-(tetrahydro-2H-pyran-4-yl)acetyl]-10,10-dimethyl-N-{(1R,2S)-1-[(pyrrolidin-1-ylsulfonyl)carbamoyl]-2-vinylcyclopropyl}-7-azadispiro[3.0.4.1]decane-8-carboxamide], the concentration for half-maximal inhibition (IC50) is 70 nM. With `C=C[C@@H]1C[C@]1(NC(=O)[C@@H]1C[C@@]2(CN1C(=O)[C@@H](NC(=O)[C@@H](NC(=O)[C@@H]1CCCCN1C(C)C)C1CCCCC1)C1CCOCC1)C(C)(C)C21CCC1)C(=O)NS(=O)(=O)N(CC)CC` [Compound 84, (5R,8S)-7-[(2S)-2-{[(2S)-2-cyclohexyl-2-({[(2S)-1-isopropylpiperidin-2-yl]carbonyl}amino)acetyl]amino}-2-(tetrahydro-2H-pyran-4-yl)acetyl]-N-[(1R,2S)-1-{[(diethylamino)sulfonyl]carbamoyl}-2-vinylcyclopropyl]-10,10-dimethyl-7-azadispiro[3.0.4.1]decane-8-carboxamide], the half-maximal inhibitory concentration (IC50) was found to be 6 nM. For the molecule `C=C[C@@H]1C[C@]1(NC(=O)[C@@H]1C[C@@]2(CN1C(=O)[C@@H](NC(=O)[C@@H](NC(=O)[C@@H]1CCCCN1C1CCCC1)C(C)(C)C)C(C)(C)C)C(C)(C)C21CCC1)C(=O)NS(=O)(=O)N1CCCC1` [Compound 31, (5R,8S)-7-[(2S)-2-{[(2S)-2-({[(2S)-1-cyclopentylpiperidin-2-yl]carbonyl}amino)-3,3-dimethylbutanoyl]amino}-3,3-dimethylbutanoyl]-10,10-dimethyl-N-{(1R,2S)-1-[(pyrrolidin-1-ylsulfonyl)carbamoyl]-2-vinylcyclopropyl}-7-azadispiro[3.0.4.1]decane-8-carboxamide], the IC50 came to 8 nM. As to `C=C[C@@H]1C[C@]1(NC(=O)[C@@H]1C[C@@]2(CN1C(=O)[C@@H](NC(=O)[C@@H](NC(=O)C1CCN(C(C)=O)CC1)C1CCCCC1)C(C)(C)C)C(C)(C)C21CCC1)C(=O)NS(=O)(=O)N1CCCC1` [Compound 194, (5R,8S)-7-[(2S)-2-{[{[(1-acetylpiperidin-4-yl)carbonyl]amino}(cyclohexyl)acetyl]amino}-3,3-dimethylbutanoyl]-10,10-dimethyl-N-{(1R,2S)-1-[(pyrrolidin-1-ylsulfonyl)carbamoyl]-2-vinylcyclopropyl}-7-azadispiro[3.0.4.1]decane-8-carboxamide], the concentration for half-maximal inhibition (IC50) stood at 10 nM.

Source of the values: patent US8613914B2, “Peptidomimetic sulfamide compounds and antiviral uses thereof” (Novartis AG, priority 2009, dated 2013).
